Measured values: the supplement of paper PMC10307832

Legend:
Experiment in all cases: relative viability (nuclei count vs DMSO), 5 days (fraction); higher = more cells survive
[1] = compound: C1CC(C1)(C(=O)O)C(=O)O.[NH2-].[NH2-].[Pt+2] [Carboplatin]
How it was run: (§1)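 Cells of lung cancer lines were placed in 1536-well plates and kept overnight at 37 °C. Pinning then delivered five library-drug doses (not always all listed), spaced by √10, onto plates anchored with vehicle, and the cells were left 5 days without changing medium. One step fixed, permeabilised and stained them with Hoechst, and MetaXpress counted nuclei in 4× images. Viability, as a median over plates, is treated-well nuclei divided by vehicle-well nuclei, with acceptance only at control CV below 25% and at least one doubling.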

[2] = compound: CC[C@H](C)N1C=C(C2=C(C=C(C=C21)C3=CN=C(C=C3)N4CCNCC4)C(=O)NCC5=C(C=C(NC5=O)C)C)C [GSK126]
How it was run: as §1

[3] = compound: NS(=O)(=O)OC[C@@H]1C[C@@H](n2ccc3c(N[C@H]4CCc5ccccc54)ncnc32)C[C@@H]1O [MLN4924]
How it was run: as §1

Cell Line | relative viability ([1]; 0.08 µM) | relative viability ([1]; 0.253 µM) | relative viability ([1]; 0.8 µM) | relative viability ([1]; 2.53 µM) | relative viability ([1]; 8 µM) | relative viability ([2]; 0.08 µM) | relative viability ([2]; 0.253 µM) | relative viability ([2]; 0.8 µM) | relative viability ([2]; 2.53 µM) | relative viability ([2]; 8 µM) | relative viability ([3]; 0.04 µM) | relative viability ([3]; 0.1265 µM) | relative viability ([3]; 0.4 µM) | relative viability ([3]; 1.265 µM) | relative viability ([3]; 4 µM)
IA-LM | 1.08 | 1.06 | 0.927 | 0.835 | 0.778 | 1.04 | 0.906 | 0.925 | 0.997 | 0.894 | 0.573 | 0.29 | 0.14 | 0.0648 | 0.0764
LC-2-ad | 1.01 | 0.948 | 0.955 | 0.953 | 0.849 | 1.09 | 0.985 | 0.988 | 1.02 | 1.05 | 0.922 | 0.825 | 0.521 | 0.235 | 0.181
LCLC-97TM1 | 1.13 | 0.978 | 1.09 | 1.03 | 0.837 | 0.999 | 0.965 | 0.91 | 1.02 | 1.11 | 0.929 | 0.657 | 0.31 | 0.073 | 0.0774
LCLC-103H | 1.03 | 0.989 | 0.992 | 1.07 | 0.834 | 1.02 | 1.03 | 1.01 | 0.994 | 1.01 | 0.949 | 1.02 | 0.912 | 0.282 | 0.312
LK-2 | 1.11 | 0.943 | 0.947 | 0.937 | 1.06 | 1.01 | 0.988 | 0.985 | 1.08 | 0.994 | 0.971 | 0.787 | 0.618 | 0.245 | 0.239
LOU-NH91 | 1.16 | 0.938 | 0.96 | 0.969 | 0.936 | 0.966 | 0.978 | 0.95 | 1.06 | 0.985 | 0.997 | 1.13 | 0.929 | 0.543 | 0.563
LU99A | 1.15 | 1.08 | 1.03 | 0.901 | 0.702 | 1.04 | 0.985 | 0.912 | 1.02 | 0.904 | 0.918 | 0.601 | 0.405 | 0.178 | 0.195
LXF-289 | 1.03 | 1.05 | 0.967 | 0.987 | 0.973 | 1.03 | 1.05 | 1.02 | 1.01 | 1.01 | 0.887 | 0.822 | 0.556 | 0.208 | 0.146
NCI-H23 | 1.13 | 1.01 | 0.991 | 1.02 | 0.792 | 1.03 | 0.949 | 1.02 | 1.18 | 1.21 | 0.815 | 0.721 | 0.462 | 0.204 | 0.206
NCI-H322M | 1.1 | 0.918 | 0.984 | 0.969 | 0.931 | 0.925 | 0.959 | 0.992 | 1.09 | 0.968 | 1.26 | 1.3 | 0.684 | 0.273 | 0.35
NCI-H358 | 1.25 | 1.07 | 1.06 | 0.891 | 0.928 | 1.07 | 0.965 | 0.914 | 1.05 | 1.01 | 1.02 | 0.904 | 0.327 | 0.201 | 0.213
NCI-H441 | 0.957 | 1.08 | 0.925 | 1 | 0.801 | 1.23 | 0.954 | 0.986 | 1.05 | 0.995 | 0.943 | 0.822 | 0.512 | 0.148 | 0.185
NCI-H460 | 1.02 | 0.981 | 0.994 | 0.915 | 0.412 | 1.08 | 1.06 | 0.984 | 1.01 | 1.05 | 0.976 | 0.985 | 0.914 | 0.288 | 0.105
NCI-H520 | 1.01 | 0.915 | 0.947 | 0.962 | 0.822 | 1.21 | 0.979 | 0.932 | 1.22 | 1.03 | 0.706 | 0.563 | 0.533 | 0.24 | 0.243
NCI-H522 | 1.12 | 0.963 | 0.922 | 0.873 | 0.881 | 1.1 | 0.929 | 1.01 | 0.977 | 0.989 | 0.87 | 0.777 | 0.515 | 0.397 | 0.426
NCI-H596 | 0.993 | 0.995 | 0.938 | 0.826 | 0.752 | 0.983 | 0.9 | 0.965 | 1.01 | 0.981 | 0.973 | 1.1 | 0.554 | 0.854 | 0.739
NCI-H647 | 1.13 | 1.02 | 0.986 | 0.944 | 0.767 | 0.879 | 0.964 | 0.896 | 1.05 | 1 | 0.881 | 0.619 | 0.221 | 0.0551 | 0.0691
NCI-H650 | 0.988 | 0.874 | 0.959 | 0.864 | 0.668 | 0.991 | 0.962 | 0.939 | 0.914 | 1.03 | 0.618 | 0.668 | 0.268 | 0.183 | 0.194
NCI-H661 | 0.993 | 1.01 | 0.984 | 0.938 | 0.903 | 1.03 | 0.945 | 0.986 | 1.03 | 1 | 0.894 | 0.857 | 0.686 | 0.421 | 0.426
NCI-H727 | 1.11 | 0.841 | 0.94 | 0.83 | 0.671 | 1.02 | 0.946 | 0.849 | 0.997 | 1.02 | 0.844 | 0.587 | 0.5 | 0.307 | 0.326
NCI-H838 | 1.03 | 1.03 | 0.949 | 0.921 | 0.951 | 1.01 | 0.919 | 0.913 | 0.971 | 0.926 | 0.93 | 0.488 | 0.325 | 0.158 | 0.219
NCI-H1299 | 1.05 | 0.98 | 1.02 | 0.969 | 0.943 | 1.02 | 0.994 | 0.988 | 1 | 0.998 | 1.01 | 0.823 | 0.676 | 0.287 | 0.212
NCI-H1355 | 1.09 | 1.05 | 0.989 | 1 | 0.876 | 1.08 | 0.982 | 0.975 | 1.06 | 1.01 | 0.976 | 1.01 | 0.783 | 0.369 | 0.34
